This note sets out measurements from patent US8895313B2, “Ligands for aggregated tau molecules” (Wista Laboratories Ltd., priority 2008, dated 2014).

The structures appear in SMILES notation. A value given as a limit tells only on which side of the number the result lay.

Sequence of PHF (paired helical filaments) isolated from the brain of an Alzheimer's disease patient (P10636 623-708 limits assumed): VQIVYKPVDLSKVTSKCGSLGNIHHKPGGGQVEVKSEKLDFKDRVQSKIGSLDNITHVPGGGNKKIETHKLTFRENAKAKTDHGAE

One assay has as its target PHF (paired helical filaments) isolated from the brain of an Alzheimer's disease patient (Homo sapiens, UniProt P10636). Kind of assay: Competitive binding assay: displacement of primulin fluorescence from PHFs. Further details: key to P50: fl indicates that the compound is fluorescent. Consequently, binding levels for the compound in the competition binding assay cannot be determined by fluorescent spectroscopy. Particulars: compound fluorescent, no P50 obtainable. As for the experimental part:
The DSB compounds were tested for their ability to bind to PHF in a competition-style assay.
If a test compound that also binds to PHFs with the same or greater affinity is added, it will displace the reference ligand and reduce the fluorescence signal. In the present assay, the reference compound is primulin, which was added at 1 μM. Test compounds were added at concentrations from 0.05 to 1 μM. The P50 for a test compound is defined as the concentration of compound that reduces the primulin signal to 50% of the control value. This value is, therefore, not an absolute affinity, but a relative affinity compared to the affinity of primulin.
PHFs were isolated from the brain of an Alzheimer's disease patient essentially as described by Wischik et al. (Neurobiology of Aging, Vol. 16, pp. 409-431, 1995). The IFII fraction was isolated by centrifugation on a sucrose gradient as described in the PhD thesis of C. M. Wischik, and was further extracted into an ‘abc sup’ as described by C. M. Wischik (Thesis “The structure and biochemistry of paired helical filaments in Alzheimer's disease” Part I and II; Cambridge University, 1989).
The assay for ligand activity was performed in 96 well plates (Nunc Cat. No. 236108). The test compound at the required concentration was mixed with PHFs, then primulin was added to give a final concentration of 1 μM and a total volume of 100 μl. The concentration of PHFs added was determined for each preparation to give an adequate fluorescence signal, and was typically in the range 1-2 μl/100 μl. The test compounds were typically dissolved in DMSO to give a final concentration of 10% DMSO in the assay. The control fluorescence, in the absence of PHFs, was also measured in the presence of 10% DMSO.
The fluorescence was measured in a Varian Carey Eclipse Fluorescence Spectrophotometer, with the […] wavelength at 480 nm. Excitation spectra were recorded and corrected by subtraction of the signal measured in the absence of PHFs, using the Varian software. The fluorescence signal at the peak […] wavelength of 420 nm was measured from the corrected spectra. The fluorescence values were plotted as a function of concentration of test compound, and the value for P50 measured from the graph.
As to `Oc1ccc2nc(-c3ccc(/C=C/c4ccc(F)cc4)cc3)sc2c1` [BEHF-01], the P50 entry is listed as “fl”.
Still for that read-out and setting: the same measure for `Oc1ccc(/C=C/c2ccc(-c3nc4ccc(O)cc4s3)cc2)c(C(F)(F)F)c1` [BEHF-07]: “fl”.
The same measure, in the same setting: the same measure for `Oc1ccc2nc(-c3ccc(/C=C/c4cc(OC(F)(F)F)ccc4O)cc3)sc2c1` [BEHF-06]: “fl”.

The assay is the same for the next values; noted with them: concentration that reduces the signal of 1 μM primulin to 50% of control; relative affinity.
`Cc1ccc2nc(-c3ccc(NC(=O)c4ccccc4N(C)C)cc3)sc2c1` [ABAA-07]: the P50 result is reported as “no effect”.
The same measure, in the same setting: the same measure for `COc1ccc2nc(-c3ccc(NC(=O)c4ccc(OCCF)cc4)cc3)sc2c1` [ABMFMA-06]: “no effect”; for `COc1ccc2nc(-c3ccc(NC(=O)c4ccc(N)cc4C(F)(F)F)cc3)sc2c1` [ABFMA-16]: “no effect”.
On the same count and under the same terms, the same measure for `COc1cccc(/C=C/c2ccc(-c3nc4ccc(C)cc4s3)cc2)c1` [BEMA-12]: “no effect”; for `COc1ccc2nc(-c3ccc(/C=C/c4ccc(OCC(F)(F)F)cc4)cc3)sc2c1` [BEFA-04]: “no effect”.
On the same count and under the same terms, the same measure for `COc1ccc2nc(-c3ccc(/C=C/c4cccc(C(F)(F)F)c4)cc3)sc2c1` [BEFA-02]: “no effect”.
Regarding `COc1ccc2nc(-c3ccc(NC(=O)c4ccc(OCCCC(F)(F)F)cc4)cc3)sc2c1` [ABFMA-13], the P50 entry is “no effect”.
`Cc1ccc2nc(-c3ccc(NC(=O)c4cccnc4)cc3)cn2c1` [AIPN-04]: the P50 result is given as “no effect”.

Staying with this assay, now noted: concentration that reduces the signal of 1 μM primulin to 50% of control; relative affinity; read-out: P50.
As for `CN(C)CCOc1cc(NC(=O)c2ccc([N+](=O)[O-])c(C(F)(F)F)c2)ccc1-c1nc2ccccc2s1` [AUB-03], the IC50 is greater than 1000 nM.
The same measure, in the same setting: the same measure for `Nc1ccc(C(=O)Nc2ccc(-c3nc4ccc(O)cc4s3)cc2)cc1C(F)(F)F` [ABFHA-02]: 340 nM.
Same read-out and setting: the same measure for `O=C(Nc1ccc(-c2nc3ccc(O)cc3s2)cc1)c1ccc(O)cc1C(F)(F)F` [ABFHA-08]: greater than 1000 nM; for `Cc1ccc2nc(-c3ccc(NC(=O)c4ccc(O)c(F)c4)cc3)cn2c1` [AIPN-27]: greater than 1000 nM; for `O=C(Nc1ccc(-c2nc3ccc(O)cc3s2)cc1)c1ccc(F)c([N+](=O)[O-])c1` [ABFHA-11]: 310 nM.
On to `COc1ccc2nc(-c3ccc(NC(=O)c4ccc(O)cc4)cc3)sc2c1` [ABMA-11], for which the IC50 was found to be 430 nM.
Still for that read-out and setting: the same measure for `Cc1ccc2nc(-c3ccc(NC(=O)c4cc(F)c(O)c(F)c4)cc3)cn2c1` [AIPN-26]: greater than 1000 nM; for `Cc1ccc2nc(-c3ccc(NC(=O)c4ccc(N(C)C)c(F)c4)cc3)cn2c1` [AIPN-22]: 760 nM.
Still for that read-out and setting: the same measure for `COc1ccc2nc(-c3ccc(/C=C/c4ccc([N+](=O)[O-])cc4)cc3)sc2c1` [BEMOA-03]: 40 nM.
Same read-out and setting: the same measure for `COc1ccc2nc(-c3ccc(/C=C/c4ccc(O)c([N+](=O)[O-])c4)cc3)sc2c1` [BEMOA-09]: 30 nM.
With `Cc1ccc2nc(-c3ccc(/N=N/c4ccc(N(C)C)cc4)cc3)cn2c1` [DPN-001], the IC50 amounted to 30 nM.
Same read-out and setting: the same measure for `COc1ccc2nc(-c3ccc(NC(=O)c4ccccc4N)cc3)sc2c1` [ABMA-04]: 870 nM; for `COc1ccc2nc(-c3ccc(NC(=O)c4ccc(N(C)C)cc4)cc3)sc2c1` [ABMA-09]: 170 nM; for `CN(C)CCOc1ccc2nc(-c3ccc(NC(=O)c4ccc([N+](=O)[O-])c(C(F)(F)F)c4)cc3)sc2c1` [ABDMAA-01]: 980 nM.
The same measure, in the same setting: the same measure for `Cc1ccc2nc(-c3ccc(NC(=O)c4ccc(Cl)nc4)cc3)cn2c1` [AIPN-18]: greater than 1000 nM; for `Cc1ccc2nc(-c3ccc(NC(=O)c4cccc(F)n4)cc3)cn2c1` [AIPN-07]: greater than 1000 nM.
Same read-out and setting: the same measure for `Nc1cccc(C(=O)Nc2ccc(-c3nc4ccc(O)cc4s3)cc2)c1` [ABHA-02]: 560 nM; for `Cc1ccc2nc(-c3ccc(/C=C/c4ccc([N+](=O)[O-])cc4)cc3)cn2c1` [IEPN-01]: 50 nM; for `Cc1ccc2nc(-c3ccc(/N=N/c4ccc(O)cc4C(F)(F)F)cc3)sc2c1` [BDF-01]: 290 nM.
In the case of `Cc1ccc2nc(-c3ccc(NC(=O)c4ccc([N+](=O)[O-])cc4)cc3)cn2c1` [AIPN-08], the IC50 was 100 nM.
On the same count and under the same terms, the same measure for `COc1ccc2nc(-c3ccc(NC(=O)c4ccc([N+](=O)[O-])c(C(F)(F)F)c4)cc3)sc2c1` [ABFMA-12]: 170 nM.
Same read-out and setting: the same measure for `COc1ccc2nc(-c3ccc(/C=C/c4cccc(N)c4)cc3)sc2c1` [BEMOA-05]: 280 nM.
Turning to `Nc1ccc(C(=O)Nc2ccc(-c3nc4ccc(O)cc4s3)cc2)cc1` [ABHA-03], the IC50 was 450 nM.
As for `O=C(Nc1ccc(-c2nc3ccc(O)cc3s2)cc1)c1ccc([N+](=O)[O-])c(C(F)(F)F)c1` [ABFHA-01], the IC50 was 190 nM.
On the same count and under the same terms, the same measure for `COc1ccc2sc(-c3ccc(/N=N/c4ccc(C(F)(F)F)cc4O)cc3)nc2c1` [BDF-10]: 870 nM.
Same read-out and setting: the same measure for `O=C(Nc1ccc(-c2nc3ccc(O)cc3s2)c(C(F)(F)F)c1)c1ccc(O)cc1` [ABFHA-10]: greater than 1000 nM; for `Cc1ccc2nc(-c3ccc(NC(=O)c4ccc(O)cc4F)cc3)cn2c1` [AIPN-29]: 700 nM.
